The test system of the assay is BDF1 mice, P388 leukemia ip, median survival T/C. The assay is described as follows: NCI In Vivo Anticancer Drug Screen. Data for tumor model P388 Leukemia (intraperitoneal) in B6D2F1 (BDF1) mice. Conditions: endpoint: median survival time, higher = longer survival. In a few lines:
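Each value expresses how treatment altered survival: treated-mouse outcome over vehicle-mouse outcome, both groups bearing the transplanted tumour.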

The mark [1] stands for this setting: dose: 100.0 mg/kg/injection, schedule: Q01DX001 (ip), vehicle: saline with Tween-80.
The mark [2] stands for this setting: dose: 200.0 mg/kg/injection, schedule: Q01DX001 (ip), vehicle: saline with Tween-80.
Where [3] appears, read: dose: 400.0 mg/kg/injection, schedule: Q01DX001 (ip), vehicle: saline with Tween-80.
Where [4] appears, read: dose: 50.0 mg/kg/injection, schedule: Q01DX009 (ip), vehicle: saline with Tween-80.
[5] abbreviates: dose: 100.0 mg/kg/injection, schedule: Q01DX009 (ip), vehicle: saline with Tween-80.
Setting [6] is: dose: 200.0 mg/kg/injection, schedule: Q01DX009 (ip), vehicle: saline with Tween-80.
[7] abbreviates: dose: 25.0 mg/kg/injection, schedule: Q04DX003 (ip), vehicle: saline with Tween-80.
The mark [8] stands for this setting: dose: 100.0 mg/kg/injection, schedule: Q04DX003 (ip), vehicle: saline with Tween-80.
[9] abbreviates: dose: 200.0 mg/kg/injection, schedule: Q04DX003 (ip), vehicle: saline with Tween-80.
[10] abbreviates: dose: 400.0 mg/kg/injection, schedule: Q04DX003 (ip), vehicle: saline with Tween-80.

Where “and” joins values, the source holds several entries; their conditions need not be identical. Equal entries are not always repeated. Inconclusive results and toxic doses are left out.

Take `COc1cccc2c1C(=O)c1c(O)c3c(c(O)c1C2=O)C[C@@](O)(C(C)=O)C[C@@H]3OC1CC(NC(C)=O)C(O)C(C)O1` (stereo not given in full): the T/C reads like this: (dose: 0.73 mg/kg/injection, schedule: Q01DX009 (ip), vehicle: saline) 112 % of control; (dose: 1.1 mg/kg/injection, schedule: Q01DX009 (ip), vehicle: saline) 175 % of control; (dose: 1.25 mg/kg/injection, schedule: Q04DX003 (ip), vehicle: saline) 109 % of control; (dose: 1.65 mg/kg/injection, schedule: Q01DX009 (ip), vehicle: saline) 183 % of control; (dose: 2.5 mg/kg/injection, schedule: Q01DX009 (ip), vehicle: saline) 187 % of control; (dose: 10.0 mg/kg/injection, schedule: Q04DX003 (ip), vehicle: saline) 172 % of control. In addition, the T/C (dose: 12.5 mg/kg/injection, schedule: Q01DX009 (ip), vehicle: saline) is 240 % of control and 191 % of control; the T/C (dose: 12.5 mg/kg/injection, schedule: Q01DX009 (ip), vehicle: water) was 169 % of control; the T/C (dose: 25.0 mg/kg/injection, schedule: Q01DX009 (ip), vehicle: saline) was 150 % of control; the T/C (dose: 25.0 mg/kg/injection, schedule: Q01DX009 (ip), vehicle: water) is 192 % of control; the T/C (dose: 44.0 mg/kg/injection, schedule: Q04DX003 (ip), vehicle: saline sonified) was 180 % of control; the T/C (dose: 44.0 mg/kg/injection, schedule: Q04DX003 (ip), vehicle: saline) is 159 % of control. For the same compound, the T/C was 227 % of control (dose: 50.0 mg/kg/injection, schedule: Q01DX009 (ip), vehicle: saline); 204 % of control (dose: 50.0 mg/kg/injection, schedule: Q01DX009 (ip), vehicle: water); 175 % of control (dose: 66.0 mg/kg/injection, schedule: Q04DX003 (ip), vehicle: saline sonified); 181 % of control (dose: 66.0 mg/kg/injection, schedule: Q04DX003 (ip), vehicle: saline); 114 % of control (dose: 100.0 mg/kg/injection, schedule: Q01DX009 (ip), vehicle: water); 205 % of control (dose: 100.0 mg/kg/injection, schedule: Q04DX003 (ip), vehicle: saline sonified). In addition, the T/C (dose: 100.0 mg/kg/injection, schedule: Q04DX003 (ip), vehicle: saline) is 195 % of control; the T/C (dose: 150.0 mg/kg/injection, schedule: Q04DX003 (ip), vehicle: saline sonified) is 180 % of control; the T/C (dose: 150.0 mg/kg/injection, schedule: Q04DX003 (ip), vehicle: saline) is 168 % of control.
Turning to `O=S(=O)(Nc1cc(Cl)c(NS(=O)(=O)c2ccccc2)cc1Cl)c1ccccc1`, the T/C was 95 % of control under setting [1], 90 % of control under setting [2] and 86 % of control under setting [3].
Consider `COc1ccc(CC2C(=O)NC(C)C(=O)N(C)C3Cc4ccc(cc4)Oc4cc(ccc4O)CC(C(=O)NC(C)C(=O)NC(C)C(=O)N2C)N(C)C3=O)cc1` (stereo not given), for which the T/C was 163 % of control (dose: 0.04 mg/kg/injection, schedule: Q01DX009 (ip), vehicle: saline); 181 % of control (dose: 0.07 mg/kg/injection, schedule: Q01DX009 (ip), vehicle: saline); 196 % of control (dose: 0.11 mg/kg/injection, schedule: Q01DX009 (ip), vehicle: saline with Tween-80); 163 % of control (dose: 0.11 mg/kg/injection, schedule: Q01DX009 (ip), vehicle: saline); 216 % of control (dose: 0.16 mg/kg/injection, schedule: Q01DX009 (ip), vehicle: saline with Tween-80); 160 % of control and 186 % of control (dose: 0.25 mg/kg/injection, schedule: Q01DX009 (ip), vehicle: saline with Tween-80). Moreover, the T/C runs as follows: (dose: 0.5 mg/kg/injection, schedule: Q01DX009 (ip), vehicle: saline with Tween-80) 186 % of control; (dose: 1.0 mg/kg/injection, schedule: Q01DX009 (ip), vehicle: saline with Tween-80) 189 % of control; (dose: 2.0 mg/kg/injection, schedule: Q01DX009 (ip), vehicle: saline with Tween-80) 208 % of control; (dose: 4.32 mg/kg/injection, schedule: Q04DX003 (ip), vehicle: other) 161 % of control and 212 % of control; (dose: 7.2 mg/kg/injection, schedule: Q04DX003 (ip), vehicle: other) 163 % of control and 208 % of control; (dose: 10.0 micrograms/kg/injection, schedule: Q01DX009 (ip), vehicle: saline with Tween-80) 108 % of control. Moreover, the T/C (dose: 20.0 micrograms/kg/injection, schedule: Q01DX009 (ip), vehicle: saline with Tween-80) was 108 % of control and the T/C (dose: 40.0 micrograms/kg/injection, schedule: Q01DX009 (ip), vehicle: saline with Tween-80) is 119 % of control.
As to `CCN(CC)CCNC1=CC(=S)NC(C)(C)C1`, the T/C by setting is: (dose: 25.0 mg/kg/injection, schedule: Q01DX009 (ip), vehicle: saline with Tween-80) 101 % of control; under setting [4], 89 % of control and 111 % of control; under setting [5], 100 % of control; under setting [6], 88 % of control and 117 % of control.
Consider `Cc1c(C)c(O)c2c(c1O)C(=O)C=C(Cl)C2=O`, for which the T/C (dose: 6.25 mg/kg/injection, schedule: Q04DX003 (ip), vehicle: saline with Tween-80) is 121 % of control; the T/C (dose: 12.5 mg/kg/injection, schedule: Q04DX003 (ip), vehicle: saline with Tween-80) was 119 % of control and 120 % of control; the T/C under setting [7] is 110 % of control and 120 % of control.
In the case of `O=[N+]([O-])c1ccc2nc3c(nc2c1)-c1cccc2cccc-3c12`, the T/C by setting is: under setting [8], 91 % of control; under setting [9], 100 % of control; under setting [10], 91 % of control.
Regarding `CC1N2C3(c4ccccc4)OC(c4ccccc4)(c4ccccc43)C12c1ccccc1` (stereo not given), the T/C is, setting by setting: (dose: 50.0 mg/kg/injection, schedule: Q01DX009 (ip), vehicle: Klucel (hydroxypropylcellulose) (HPC)) 104 % of control; (dose: 100.0 mg/kg/injection, schedule: Q01DX009 (ip), vehicle: Klucel (hydroxypropylcellulose) (HPC)) 100 % of control; (dose: 200.0 mg/kg/injection, schedule: Q01DX009 (ip), vehicle: Klucel (hydroxypropylcellulose) (HPC)) 89 % of control.
For `COc1cc(Br)c(/C=C(\C)[N+](=O)[O-])cc1OC`, the T/C runs as follows: under setting [1], 109 % of control; under setting [2], 93 % of control.
For the compound `Cc1ccc(C(=O)CCCCl)c(C)c1`, the T/C is 109 % of control under setting [8], 109 % of control under setting [9] and 118 % of control under setting [10].
Consider `CCN(C(=O)Nc1ccccc1)c1ccccc1`, for which the T/C by setting is: under setting [1], 104 % of control; under setting [2], 90 % of control; under setting [3], 95 % of control.
Consider `CCN(C(=O)Nc1cccc2ccccc12)c1ccccc1`, for which the T/C is, setting by setting: (dose: 50.0 mg/kg/injection, schedule: Q01DX001 (ip), vehicle: other) 95 % of control; (dose: 100.0 mg/kg/injection, schedule: Q01DX001 (ip), vehicle: other) 95 % of control; (dose: 200.0 mg/kg/injection, schedule: Q01DX001 (ip), vehicle: other) 100 % of control.
Regarding `Cc1ccc2c(c1)NC(c1ccc(C(N)=S)cc1)N2` (stereo not given), the T/C under setting [7] is 97 % of control; the T/C (dose: 50.0 mg/kg/injection, schedule: Q04DX003 (ip), vehicle: saline with Tween-80) was 88 % of control; the T/C under setting [8] was 87 % of control.
With `CCCCCCCCCCCCNC(=O)CC(O)(CC(=O)O)C(=O)O` (stereo not given), the T/C (dose: 25.0 mg/kg/injection, schedule: Q04DX003 (ip), vehicle: Klucel (hydroxypropylcellulose) (HPC)) was 111 % of control; the T/C (dose: 50.0 mg/kg/injection, schedule: Q04DX003 (ip), vehicle: Klucel (hydroxypropylcellulose) (HPC)) was 88 % of control; the T/C (dose: 100.0 mg/kg/injection, schedule: Q04DX003 (ip), vehicle: Klucel (hydroxypropylcellulose) (HPC)) was 92 % of control.
For the compound `Cc1ccc(NS(=O)(=O)c2ccccc2)cc1`, the T/C runs as follows: under setting [8], 100 % of control; under setting [9], 100 % of control; under setting [10], 110 % of control.
Consider `CCCCCCC(=O)/C=C/c1ccc(Cl)cc1Cl`, for which the T/C runs as follows: under setting [5], 109 % of control; under setting [6], 94 % of control; (dose: 400.0 mg/kg/injection, schedule: Q01DX009 (ip), vehicle: saline with Tween-80) 98 % of control.
Take `CCc1n[nH]c(=O)c2c3ccccc3nn12`: the T/C reads like this: under setting [1], 96 % of control; under setting [2], 105 % of control; under setting [3], 100 % of control.
Regarding `COc1ccc(Oc2nc(=O)n3ccccc3n2)cc1`, the T/C runs as follows: under setting [4], 93 % of control; under setting [5], 90 % of control; under setting [6], 88 % of control.

The record behind these values is PubChem BioAssay AID328 (DTP/NCI, 2004).
